Experimental data as given in ChEMBL document CHEMBL3885861, “Open TG-GATES”.

Organism: Rattus norvegicus
Experiment: Open TG-GATES - Regimen: Single
Type: toxicity, organism-based, Sprague-Dawley
Set-up: regimen Single, gender Male, age 6 weeks
Details: in vivo, po, 0 mg/kg, route gavage, dose level Control; for APTT / Bas / Eos / Fbg / Hb / Ht / Lym / MCH / MCHC / MCV / Mono / Neu / PT / Plat / RBC / Ret / WBC: tissue Blood; for KIDNEY_L / KIDNEY_R / KIDNEY_TOTAL: tissue Kidney; for LIVER: tissue Liver; for A/G / ALP / ALT / AST / BUN / CRE / Ca / Cl / DBIL / GLC / IP / K / LDH / Na / PL / RALB / TBIL / TC / TG / TP / gamma-GTP: tissue Plasma

Compound: CCN(CC)N=O [N-NITROSODIETHYLAMINE]
- TERMINAL_BW (3 h): 221 g
- APTT (3 h): 19.6 s
- Bas (3 h): 0.4%
- Eos (3 h): 1%
- Fbg (3 h): 223 mg/dL
- Hb (3 h): 13.7 g/dL
- Ht (3 h): 40%
- Lym (3 h): 77.8%
- MCH (3 h): 21.5 pg
- MCHC (3 h): 34.1%
- MCV (3 h): 63 fL
- Mono (3 h): 2.2%
- Neu (3 h): 18%
- PT (3 h): 12 s
- Plat (3 h): 127.6 x10_4/uL
- RBC (3 h): 635.6 x10_4/ul
- Ret (3 h): 7.2%
- WBC (3 h): 66.1 x10_2/uL
- KIDNEY_L (3 h): 1 g
- KIDNEY_R (3 h): 0.9 g
- KIDNEY_TOTAL (3 h): 1.9 g
- LIVER (3 h): 9.5 g
- A/G (3 h): 1.6
- ALP (3 h): 1051 IU/L
- ALT (3 h): 37.4 IU/L
- AST (3 h): 68.4 IU/L
- BUN (3 h): 10 mg/dL
- CRE (3 h): 0.4 mg/dL
- Ca (3 h): 10.3 mg/dL
- Cl (3 h): 102 meq/L
- DBIL (3 h): 0.07 mg/dL
- GLC (3 h): 194.2 mg/dL
- IP (3 h): 9 mg/dL
- K (3 h): 3.5 meq/L
- LDH (3 h): 169.8 IU/L
- Na (3 h): 140.8 meq/L
- PL (3 h): 132.8 mg/dL
- RALB (3 h): 3.4 g/dL
- TBIL (3 h): 0.1 mg/dL
- TC (3 h): 79.4 mg/dL
- TG (3 h): 42.4 mg/dL
- TP (3 h): 5.5 g/dL
- gamma-GTP (3 h): 1 IU/L
- TERMINAL_BW (6 h): 223.5 g
- APTT (6 h): 20.6 s
- Bas (6 h): 0.2%
- Eos (6 h): 1%
- Fbg (6 h): 218 mg/dL
- Hb (6 h): 13.5 g/dL
- Ht (6 h): 39.5%
- Lym (6 h): 79.6%
- MCH (6 h): 21.4 pg
- MCHC (6 h): 34.3%
- MCV (6 h): 62.5 fL
- Mono (6 h): 2.4%
- Neu (6 h): 16%
- PT (6 h): 12 s
- Plat (6 h): 130.4 x10_4/uL
- RBC (6 h): 631.8 x10_4/ul
- Ret (6 h): 6.9%
- WBC (6 h): 81.9 x10_2/uL
- KIDNEY_L (6 h): 1 g
- KIDNEY_R (6 h): 1 g
- KIDNEY_TOTAL (6 h): 2 g
- LIVER (6 h): 9.9 g
- A/G (6 h): 1.6
- ALP (6 h): 946.2 IU/L
- ALT (6 h): 34.2 IU/L
- AST (6 h): 72.4 IU/L
- BUN (6 h): 13.6 mg/dL
- CRE (6 h): 0.4 mg/dL
- Ca (6 h): 10.3 mg/dL
- Cl (6 h): 102.8 meq/L
- DBIL (6 h): 0.076 mg/dL
- GLC (6 h): 201.2 mg/dL
- IP (6 h): 7.8 mg/dL
- K (6 h): 3.6 meq/L
- LDH (6 h): 193 IU/L
- Na (6 h): 140.8 meq/L
- PL (6 h): 141.6 mg/dL
- RALB (6 h): 3.4 g/dL
- TBIL (6 h): 0.1 mg/dL
- TC (6 h): 82.2 mg/dL
- TG (6 h): 54.4 mg/dL
- TP (6 h): 5.5 g/dL
- gamma-GTP (6 h): 1.4 IU/L
- TERMINAL_BW (9 h): 228.4 g
- APTT (9 h): 18.5 s
- Bas (9 h): 0.8%
- Eos (9 h): 1.2%
- Fbg (9 h): 230.8 mg/dL
- Hb (9 h): 13.7 g/dL
- Ht (9 h): 39.7%
- Lym (9 h): 75.4%
- MCH (9 h): 21.6 pg
- MCHC (9 h): 34.5%
- MCV (9 h): 62.5 fL
- Mono (9 h): 2.6%
- Neu (9 h): 19.2%
- PT (9 h): 12 s
- Plat (9 h): 125.1 x10_4/uL
- RBC (9 h): 636 x10_4/ul
- Ret (9 h): 7.1%
- WBC (9 h): 92.6 x10_2/uL
- KIDNEY_L (9 h): 1 g
- KIDNEY_R (9 h): 1 g
- KIDNEY_TOTAL (9 h): 1.9 g
- LIVER (9 h): 10.1 g
- A/G (9 h): 1.6
- ALP (9 h): 875.4 IU/L
- ALT (9 h): 37.8 IU/L
- AST (9 h): 69 IU/L
- BUN (9 h): 13.8 mg/dL
- CRE (9 h): 0.4 mg/dL
- Ca (9 h): 10.4 mg/dL
- Cl (9 h): 103 meq/L
- DBIL (9 h): 0.08 mg/dL
- GLC (9 h): 206.4 mg/dL
- IP (9 h): 8 mg/dL
- K (9 h): 3.8 meq/L
- LDH (9 h): 196.4 IU/L
- Na (9 h): 140.6 meq/L
- PL (9 h): 141.6 mg/dL
- RALB (9 h): 3.4 g/dL
- TBIL (9 h): 0.1 mg/dL
- TC (9 h): 84.2 mg/dL
- TG (9 h): 56.8 mg/dL
- TP (9 h): 5.6 g/dL
- gamma-GTP (9 h): 1.4 IU/L
- TERMINAL_BW (24 h): 229.8 g
- APTT (24 h): 18.9 s
- Bas (24 h): 0%
- Eos (24 h): 1.2%
- Fbg (24 h): 226.2 mg/dL
- Hb (24 h): 13.5 g/dL
- Ht (24 h): 39.6%
- Lym (24 h): 82.6%
- MCH (24 h): 21.5 pg
- MCHC (24 h): 34.1%
- MCV (24 h): 63.2 fL
- Mono (24 h): 1.8%
- Neu (24 h): 13.8%
- PT (24 h): 11.7 s
- Plat (24 h): 128.8 x10_4/uL
- RBC (24 h): 627.2 x10_4/ul
- Ret (24 h): 6.6%
- WBC (24 h): 85.1 x10_2/uL
- KIDNEY_L (24 h): 1.1 g
- KIDNEY_R (24 h): 1 g
- KIDNEY_TOTAL (24 h): 2.1 g
- LIVER (24 h): 10.2 g
- A/G (24 h): 1.6
- ALP (24 h): 1035 IU/L
- ALT (24 h): 37.8 IU/L
- AST (24 h): 63.6 IU/L
- BUN (24 h): 14 mg/dL
- CRE (24 h): 0.4 mg/dL
- Ca (24 h): 10.5 mg/dL
- Cl (24 h): 103.6 meq/L
- DBIL (24 h): 0.07 mg/dL
- GLC (24 h): 208 mg/dL
- IP (24 h): 9.5 mg/dL
- K (24 h): 3.7 meq/L
- LDH (24 h): 190.6 IU/L
- Na (24 h): 141 meq/L
- PL (24 h): 150.6 mg/dL
- RALB (24 h): 3.3 g/dL
- TBIL (24 h): 0.1 mg/dL
- TC (24 h): 86.6 mg/dL
- TG (24 h): 57.8 mg/dL
- TP (24 h): 5.4 g/dL
- gamma-GTP (24 h): 1 IU/L
